Holding throughout (type): functional
The test system of assay [1] is Staphylococcus aureus. Kind of assay: Antimicrobial activity against erythromycin-susceptible Staphylococcus aureus ATCC 29213.
For assay [2], the system named is Staphylococcus aureus. Kind of assay: Antimicrobial activity against erythromycin-susceptible Staphylococcus aureus PU19 encoded by erm(A) gene.
For assay [3], the system named is Streptococcus pneumoniae. Description: Antimicrobial activity against erythromycin-resistant Streptococcus pneumoniae PU13 encoded by erm and mef gene.
Assay [4] deals with Staphylococcus aureus. Description: Antimicrobial activity against erythromycin-susceptible Staphylococcus aureus PU32 encoded by erm(A) gene.
The test system of assay [5] is Streptococcus pneumoniae. Description: Antimicrobial activity against erythromycin-resistant Streptococcus pneumoniae PU11 encoded by erm and mef gene.
Assay [6] deals with Streptococcus pneumoniae. Description: Antimicrobial activity against erythromycin-susceptible Streptococcus pneumoniae ATCC 49619.

One may read the MIC as the lowest concentration that inhibits growth of the organism. Lower therefore signals a more susceptible organism.

≈ marks a conversion by molar mass, not a printed value. Some results are limits rather than exact numbers.

As to `CC[C@H]1OC(=O)[C@H](C)[C@@H](O/C=C\Cc2cncc3ccccc23)[C@H](C)[C@@H](O[C@@H]2O[C@H](C)C[C@H](N(C)C)[C@H]2O)[C@](C)(OC)C[C@@H](C)/C(=N\OCc2ccccc2Cl)[C@H](C)[C@H]2OC(=O)O[C@@]21C`, the MIC was determined as 8 mg/L (≈ 8.67 µM) in assay [1]; 64 mg/L (≈ 69.4 µM) in assay [2]; 32 mg/L (≈ 34.7 µM) in assay [3]; 32 mg/L (≈ 34.7 µM) in assay [4]; 32 mg/L (≈ 34.7 µM) in assay [5]; 0.25 mg/L (≈ 0.271 µM) in assay [6].
With `CC[C@H]1OC(=O)[C@H](C)[C@@H](OC/C=C/c2cncc3ccccc23)[C@H](C)[C@@H](O[C@@H]2O[C@H](C)C[C@H](N(C)C)[C@H]2O)[C@](C)(OC)C[C@@H](C)/C(=N\OCc2ccccc2Cl)[C@H](C)[C@H]2OC(=O)O[C@@]21C`, the MIC in assay [1] amounted to 64 mg/L (≈ 69.4 µM); in assay [2], 64 mg/L (≈ 69.4 µM); in assay [3], 32 mg/L (≈ 34.7 µM); in assay [4], 64 mg/L (≈ 69.4 µM); in assay [5] it was 32 mg/L (≈ 34.7 µM); in assay [6], 4 mg/L (≈ 4.34 µM).
`CC[C@H]1OC(=O)[C@H](C)[C@@H](O[C@H]2C[C@@](C)(OC)[C@@H](O)[C@H](C)O2)[C@H](C)[C@@H](O[C@@H]2O[C@H](C)C[C@H](N(C)C)[C@H]2O)[C@](C)(O)C[C@@H](C)CN(C)[C@H](C)[C@@H](O)[C@]1(C)O` [AZITHROMYCIN]: the MIC in assay [1] was 0.5 mg/L (≈ 0.668 µM); in assay [2], > 256 mg/L; in assay [3], 128 mg/L (≈ 171 µM); in assay [4] it was 64 mg/L (≈ 85.4 µM); in assay [5], 128 mg/L (≈ 171 µM); in assay [6] it was 0.064 mg/L (≈ 0.0854 µM).
Consider `CC[C@H]1OC(=O)[C@H](C)[C@@H](O[C@H]2C[C@@](C)(OC)[C@@H](O)[C@H](C)O2)[C@H](C)[C@@H](O[C@@H]2O[C@H](C)C[C@H](N(C)C)[C@H]2O)[C@](C)(OC)C[C@@H](C)C(=O)[C@H](C)[C@@H](O)[C@]1(C)O` [CLARITHROMYCIN], for which the MIC in assay [1] is 0.5 mg/L (≈ 0.668 µM); in assay [2] it was > 256 mg/L; in assay [3] it was 128 mg/L (≈ 171 µM); in assay [4] it was 128 mg/L (≈ 171 µM); in assay [5] it was 128 mg/L (≈ 171 µM); in assay [6], 0.032 mg/L (≈ 0.0428 µM).

The record behind these values is ChEMBL document CHEMBL1157905, “Synthesis and antibacterial activities of a novel alkylide: 3-O-(3-aryl-2-propargyl) and 3-O-(3-aryl-2-propenyl)clarithromycin derivatives” (2010).
